Legend:
Assay type in all cases: ADME
[1] = molecular target: T1, Cytochrome P450 2A6 (Homo sapiens, UniProt P11509); assay: Drug metabolism in human liver microsomes assessed as 2 uM tranylcypromine-mediated inhibition of CYP2A6-mediated (R)-1-(4-(4-fluoro-2-(hydroxymethyl)-1H-indol-5-yloxy)-5-methylpyrrolo[1,2-f][1,2,4]triazin-6-yloxy)propan-2-ol formation at 2 and 20 uM for 30 mins by LC/MS analysis; conditions: 0.5 h
T1 sequence (P11509 whole entry): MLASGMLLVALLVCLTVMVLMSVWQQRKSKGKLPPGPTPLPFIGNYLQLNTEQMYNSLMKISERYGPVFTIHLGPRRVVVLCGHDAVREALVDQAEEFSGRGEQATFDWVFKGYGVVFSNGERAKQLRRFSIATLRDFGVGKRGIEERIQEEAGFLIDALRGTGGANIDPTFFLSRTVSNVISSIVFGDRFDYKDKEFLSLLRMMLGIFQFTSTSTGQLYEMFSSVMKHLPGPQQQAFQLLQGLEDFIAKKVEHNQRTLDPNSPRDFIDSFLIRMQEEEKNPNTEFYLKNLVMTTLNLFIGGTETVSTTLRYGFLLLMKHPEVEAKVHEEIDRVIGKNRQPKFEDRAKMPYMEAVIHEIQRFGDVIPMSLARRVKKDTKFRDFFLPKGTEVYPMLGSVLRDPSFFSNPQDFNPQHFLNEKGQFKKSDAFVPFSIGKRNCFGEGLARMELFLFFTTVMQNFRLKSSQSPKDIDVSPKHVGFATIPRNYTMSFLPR

[2] = molecular target: Cytochrome P450 2E1 (Homo sapiens, UniProt P05181); assay: Drug metabolism in human liver microsomes assessed as 50 uM diethyldithiocarbamate-mediated inhibition of CYP2E1-mediated (R)-1-(4-(4-fluoro-2-(hydroxymethyl)-1H-indol-5-yloxy)-5-methylpyrrolo[1,2-f][1,2,4]triazin-6-yloxy)propan-2-ol formation at 2 and 20 uM for 30 mins by LC/MS analysis; conditions: 0.5 h
Cytochrome P450 2E1, sequence (P05181 whole entry): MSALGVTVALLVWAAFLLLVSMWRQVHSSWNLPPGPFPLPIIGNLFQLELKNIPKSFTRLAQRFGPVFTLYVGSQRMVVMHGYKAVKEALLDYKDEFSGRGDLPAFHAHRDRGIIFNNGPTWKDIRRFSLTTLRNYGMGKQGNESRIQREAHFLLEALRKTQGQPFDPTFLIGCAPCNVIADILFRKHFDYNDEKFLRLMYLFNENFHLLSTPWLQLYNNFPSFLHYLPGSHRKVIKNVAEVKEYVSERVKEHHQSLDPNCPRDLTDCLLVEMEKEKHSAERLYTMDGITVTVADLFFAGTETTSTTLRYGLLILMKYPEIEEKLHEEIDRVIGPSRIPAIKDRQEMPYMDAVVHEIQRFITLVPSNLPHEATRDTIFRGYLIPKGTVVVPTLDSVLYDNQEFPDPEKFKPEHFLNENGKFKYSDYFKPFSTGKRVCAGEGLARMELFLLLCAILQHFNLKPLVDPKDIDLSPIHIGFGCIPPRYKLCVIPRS

[3] = molecular target: Cytochrome P450 1B1 (Homo sapiens, UniProt Q16678); assay: Drug metabolism assessed as human CYP1B1-mediated (R)-1-(4-(4-fluoro-2-(hydroxymethyl)-1H-indol-5-yloxy)-5-methylpyrrolo[1,2-f][1,2,4]triazin-6-yloxy)propan-2-ol formation at 2 and 20 uM for 20 mins by LC/MS analysis in presence of NADPH; conditions: recombinant enzyme
Cytochrome P450 1B1, sequence (Q16678 whole entry): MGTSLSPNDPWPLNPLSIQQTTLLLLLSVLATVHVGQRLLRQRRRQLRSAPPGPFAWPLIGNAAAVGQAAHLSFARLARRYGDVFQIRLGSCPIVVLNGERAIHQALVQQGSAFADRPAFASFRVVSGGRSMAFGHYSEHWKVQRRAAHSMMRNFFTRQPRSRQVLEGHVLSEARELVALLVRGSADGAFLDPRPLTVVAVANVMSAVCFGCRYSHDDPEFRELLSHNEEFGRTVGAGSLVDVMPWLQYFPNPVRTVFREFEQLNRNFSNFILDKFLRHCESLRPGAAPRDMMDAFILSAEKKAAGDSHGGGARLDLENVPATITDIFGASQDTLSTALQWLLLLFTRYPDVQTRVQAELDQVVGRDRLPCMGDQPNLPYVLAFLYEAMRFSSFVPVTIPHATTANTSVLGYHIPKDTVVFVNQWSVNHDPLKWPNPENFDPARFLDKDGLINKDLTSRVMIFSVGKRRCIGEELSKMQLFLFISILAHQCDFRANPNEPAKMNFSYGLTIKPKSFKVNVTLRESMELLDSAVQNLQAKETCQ

[4] = molecular target: Cytochrome P450 3A4 (Homo sapiens, UniProt P08684); assay: Drug metabolism assessed as human CYP3A4-mediated (R)-1-(4-(4-fluoro-2-(hydroxymethyl)-1H-indol-5-yloxy)-5-methylpyrrolo[1,2-f][1,2,4]triazin-6-yloxy)propan-2-ol formation at 2 and 20 uM for 20 mins by LC/MS analysis in presence of NADPH; conditions: recombinant enzyme
Cytochrome P450 3A4, sequence (P08684 whole entry): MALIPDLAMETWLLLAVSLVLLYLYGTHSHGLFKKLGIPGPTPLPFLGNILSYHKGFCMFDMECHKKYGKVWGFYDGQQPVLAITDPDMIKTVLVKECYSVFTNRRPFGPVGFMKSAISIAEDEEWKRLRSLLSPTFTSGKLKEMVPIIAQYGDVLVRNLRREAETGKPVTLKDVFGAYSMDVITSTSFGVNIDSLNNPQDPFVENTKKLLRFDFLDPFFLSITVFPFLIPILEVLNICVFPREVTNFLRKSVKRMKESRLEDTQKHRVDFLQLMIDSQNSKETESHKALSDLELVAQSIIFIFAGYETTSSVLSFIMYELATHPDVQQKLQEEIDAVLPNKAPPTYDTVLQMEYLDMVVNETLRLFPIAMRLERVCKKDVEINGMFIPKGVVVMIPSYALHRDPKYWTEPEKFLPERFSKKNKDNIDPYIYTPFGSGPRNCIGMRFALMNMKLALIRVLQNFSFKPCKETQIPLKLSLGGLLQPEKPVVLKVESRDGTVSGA

[5] = molecular target: Cytochrome P450 2D6 (Homo sapiens, UniProt P10635); assay: Drug metabolism assessed as human CYP2D6-mediated (R)-1-(4-(4-fluoro-2-(hydroxymethyl)-1H-indol-5-yloxy)-5-methylpyrrolo[1,2-f][1,2,4]triazin-6-yloxy)propan-2-ol formation at 2 and 20 uM for 20 mins by LC/MS analysis in presence of NADPH; conditions: recombinant enzyme
Cytochrome P450 2D6, sequence (P10635 whole entry): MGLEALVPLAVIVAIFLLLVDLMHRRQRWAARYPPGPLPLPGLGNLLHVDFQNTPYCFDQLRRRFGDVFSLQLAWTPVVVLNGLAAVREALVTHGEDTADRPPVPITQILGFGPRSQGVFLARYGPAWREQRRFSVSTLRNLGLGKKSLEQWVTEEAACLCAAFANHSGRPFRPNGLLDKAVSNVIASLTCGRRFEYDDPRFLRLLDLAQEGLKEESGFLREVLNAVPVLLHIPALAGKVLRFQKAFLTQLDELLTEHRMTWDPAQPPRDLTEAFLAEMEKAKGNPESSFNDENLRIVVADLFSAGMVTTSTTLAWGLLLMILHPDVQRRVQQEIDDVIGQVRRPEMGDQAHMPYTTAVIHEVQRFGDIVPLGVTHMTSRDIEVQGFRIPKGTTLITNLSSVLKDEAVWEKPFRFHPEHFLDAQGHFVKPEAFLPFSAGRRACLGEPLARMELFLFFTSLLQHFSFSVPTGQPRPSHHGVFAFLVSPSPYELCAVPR

[6] = molecular target: T1, Cytochrome P450 2A6; assay: Drug metabolism assessed as human CYP2A6-mediated (R)-1-(4-(4-fluoro-2-(hydroxymethyl)-1H-indol-5-yloxy)-5-methylpyrrolo[1,2-f][1,2,4]triazin-6-yloxy)propan-2-ol formation at 2 and 20 uM for 20 mins by LC/MS analysis in presence of NADPH; conditions: recombinant enzyme
[7] = Activity of CYP3A4/CYP1A2 in human liver microsomes assessed as enzyme-mediated (R)-1-(4-(4-fluoro-2-(hydroxymethyl)-1H-indol-5-yloxy)-5-methylpyrrolo[1,2-f][1,2,4]triazin-6-yloxy)propan-2-ol formation in presence of NADPH
[8] = test system: Liver microsome; assay: Drug level in human liver microsomes assessed as compound formation treated with 2 uM [14C]brivanib alaninate for 60 mins by LC/MS analysis; conditions: 1 h
[9] = test system: Liver microsome; assay: Drug level in human liver microsomes assessed as compound formation treated with 2 uM [14C]brivanib alaninate for 60 mins by LC/MS analysis in presence of NADPH; conditions: 1 h
[10] = test system: Liver microsome; assay: Drug metabolism in human liver microsomes assessed as (R)-1-(4-(4-fluoro-2-(hydroxymethyl)-1H-indol-5-yloxy)-5-methylpyrrolo[1,2-f][1,2,4]triazin-6-yloxy)propan-2-ol formation at 2 and 20 uM for 30 mins by LC/MS analysis in presence of antibody for CYP1A2; conditions: 0.5 h
[11] = molecular target: Sulfotransferase 1A1 (Homo sapiens, UniProt P50225); assay: Drug metabolism assessed as human SULT1A1-mediated (R)-1-(4-(4-fluoro-2-methyl-1H-indol-5-yloxy)-5-methylpyrrolo[1,2-f][1,2,4]triazin-6-yloxy)propane-2-sulfonic acid formation at 2 and 20 uM for 30 mins by LC/MS analysis in presence of PAPS; conditions: 0.5 h
Sulfotransferase 1A1, sequence (P50225 whole entry): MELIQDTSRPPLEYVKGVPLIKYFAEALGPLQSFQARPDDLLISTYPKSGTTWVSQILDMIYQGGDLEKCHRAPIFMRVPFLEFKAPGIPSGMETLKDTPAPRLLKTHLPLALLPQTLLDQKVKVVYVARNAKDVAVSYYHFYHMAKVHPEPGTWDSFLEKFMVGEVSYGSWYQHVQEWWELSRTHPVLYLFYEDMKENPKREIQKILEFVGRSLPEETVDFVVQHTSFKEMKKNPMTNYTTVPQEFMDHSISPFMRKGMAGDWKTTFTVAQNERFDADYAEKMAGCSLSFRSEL

[12] = molecular target: Sulfotransferase 1A3 (Homo sapiens, UniProt P0DMM9); assay: Drug metabolism assessed as human SULT1A3-mediated (R)-1-(4-(4-fluoro-2-methyl-1H-indol-5-yloxy)-5-methylpyrrolo[1,2-f][1,2,4]triazin-6-yloxy)propane-2-sulfonic acid formation at 2 and 20 uM for 30 mins by LC/MS analysis in presence of PAPS; conditions: 0.5 h
Sulfotransferase 1A3, sequence (P0DMM9 whole entry): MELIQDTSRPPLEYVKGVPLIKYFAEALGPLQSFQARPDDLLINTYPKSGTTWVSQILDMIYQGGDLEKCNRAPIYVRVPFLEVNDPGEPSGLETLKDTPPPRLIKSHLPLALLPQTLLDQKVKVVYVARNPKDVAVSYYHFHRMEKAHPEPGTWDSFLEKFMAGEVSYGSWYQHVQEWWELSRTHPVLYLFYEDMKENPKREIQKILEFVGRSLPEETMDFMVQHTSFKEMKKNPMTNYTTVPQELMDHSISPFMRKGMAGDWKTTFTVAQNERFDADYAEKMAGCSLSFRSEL

[13] = molecular target: Sulfotransferase 1E1 (Homo sapiens, UniProt P49888); assay: Drug metabolism assessed as human SULT1E1-mediated (R)-1-(4-(4-fluoro-2-methyl-1H-indol-5-yloxy)-5-methylpyrrolo[1,2-f][1,2,4]triazin-6-yloxy)propane-2-sulfonic acid formation at 2 and 20 uM for 30 mins by LC/MS analysis in presence of PAPS; conditions: 0.5 h
Sulfotransferase 1E1, sequence (P49888 whole entry): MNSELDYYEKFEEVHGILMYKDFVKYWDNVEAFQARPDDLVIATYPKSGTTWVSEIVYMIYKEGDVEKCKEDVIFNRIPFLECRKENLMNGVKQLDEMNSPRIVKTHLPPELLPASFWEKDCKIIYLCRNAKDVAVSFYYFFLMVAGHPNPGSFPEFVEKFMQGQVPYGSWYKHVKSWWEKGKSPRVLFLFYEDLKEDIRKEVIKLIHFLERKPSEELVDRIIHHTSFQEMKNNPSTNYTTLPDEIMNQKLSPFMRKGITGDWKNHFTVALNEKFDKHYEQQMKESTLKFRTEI

[14] = molecular target: Cytochrome P450 2C9 (Homo sapiens, UniProt P11712); assay: Drug metabolism in human liver microsomes assessed as monoclonal antibody-mediated inhibition of CYP2C9-mediated (R)-1-(4-(4-fluoro-2-(hydroxymethyl)-1H-indol-5-yloxy)-5-methylpyrrolo[1,2-f][1,2,4]triazin-6-yloxy)propan-2-ol formation at 2 and 20 uM for 30 mins by LC/MS analysis; conditions: 0.5 h
Cytochrome P450 2C9, sequence (P11712 whole entry): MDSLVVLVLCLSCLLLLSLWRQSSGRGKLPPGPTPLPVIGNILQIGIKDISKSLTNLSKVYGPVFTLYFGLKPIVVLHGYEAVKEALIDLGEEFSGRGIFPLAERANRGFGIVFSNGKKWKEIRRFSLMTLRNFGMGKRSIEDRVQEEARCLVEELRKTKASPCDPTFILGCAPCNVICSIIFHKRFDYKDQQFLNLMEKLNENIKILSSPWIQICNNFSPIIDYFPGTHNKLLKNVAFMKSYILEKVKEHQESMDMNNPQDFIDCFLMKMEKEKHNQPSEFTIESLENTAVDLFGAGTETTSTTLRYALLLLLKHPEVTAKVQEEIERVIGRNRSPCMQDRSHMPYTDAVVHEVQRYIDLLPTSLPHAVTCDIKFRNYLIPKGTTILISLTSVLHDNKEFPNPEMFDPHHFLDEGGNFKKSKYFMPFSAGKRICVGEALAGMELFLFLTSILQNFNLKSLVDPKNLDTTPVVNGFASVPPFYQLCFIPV

Drug metabolism [1]: metabolite_detected | Drug metabolism [2]: metabolite_detected | Drug metabolism [3]: metabolite_detected | Drug metabolism [4]: metabolite_detected | Drug metabolism [5]: metabolite_detected | Drug metabolism [6]: metabolite_detected | Km [7]: 29.1 µM | Drug metabolism [8]: metabolite_detected | Drug metabolism [9]: metabolite_detected | Drug metabolism [10]: metabolite_not_detected | Drug metabolism [11]: metabolite_detected | Drug metabolism [12]: metabolite_detected | Drug metabolism [13]: metabolite_detected | Drug metabolism [14]: metabolite_detected
SMILES: Cc1cc2c(F)c(Oc3ncnn4cc(OC[C@@H](C)O)c(C)c34)ccc2[nH]1 [BRIVANIB]

From ChEMBL document CHEMBL3526086, “Identification of the oxidative and conjugative enzymes involved in the biotransformation of brivanib” (Drug Metab Dispos, 2012)
